Test results from patent publication US9188595B2, “Alzheimer's disease diagnosis based on mitogen-activated protein kinase phosphorylation” (Blanchett Rockefeller Neurosciences Institute, priority 2001, dated 2015).

Legend:
[1] = tested on: Erk1/2; experiment: BK-stimulated Erk1/2 phosphorylation in skin fibroblasts (Western blot, normalized to total Erk1/2); format: cell-based, human; conditions: 10 nM BK 5 min
Protocol: Banked AC and AD fibroblasts were grown to 80-100% confluence before they were “starved” in a serum-free DMEM overnight. Cells were treated with 10 nM BK at 37° C. for different intervals to establish a time course for BK effects. The same volume of PBS was added to a control flask of cells of each line. The reaction was terminated by removing the medium, rapidly rinsing the cells with pre-cooled PBS, pH 7.4, and transferring the flask onto dry ice/ethanol.
(§1) For inhibition studies, cells were preincubated with the following concentration of inhibitor at 37° C. for the intervals indicated: 2ABP (50 μM for 30 min); PP1 (10 μM for 15 min); Ly294002 (5 μM for 15 min); and BiSM-1 (5 μM for 15 min). A parallel control flask was incubated with an identical volume of DMSO vehicle. At the end of this incubation, the same inhibitor at the indicated concentration was added and followed immediately by BK to a final concentration of 10 nM. BK (10 nM) was also added to DMSO controls. Basal controls were cells to which neither BK nor inhibitors were added. After a 5-min incubation at 37° C., the reaction was terminated as above.
Cell lysates were prepared from cells of the various groups. Flasks were moved from dry ice/ethanol to ice water. Each flask received 1 ml of lysis buffer (10 mM Tris pH 7.4, 150 mM NaCl, 1 mM EDTA, 1 mM EGTA, pH 8, 0.5% NP-40, 1% Triton X-100, 1% protease inhibitor cocktail (Sigma), 1% cocktail of serine/threonine (Ser/Thr) phosphatase inhibitor and tyrosine (Tyr) phosphatase inhibitor (Sigma). After rocking on an end-to-end shaker in a cold room for 30 min, cells were collected from each flask with a cell scraper. […]
Cell lysates were boiled in an equal volume of 2× SDS-sample buffer for 10 min. […] Phosphorylated Erk1/2 was detected with anti-phospho-Erk1/2 antibody using the SuperSignal ECL detection kit. […]
Signals from phosphorylated and nonphosphorylated Erk1/2 (or CREB) were scanned with a Fuji film LAS-1000 Plus scanner. The mean optical density of each protein band was measured using NIH Image software. […]

[2] = tested on: CREB; experiment: BK-stimulated CREB phosphorylation (Ser133) and total CREB in skin fibroblasts (Western blot); format: cell-based, human; conditions: 10 nM BK 10 min; for Effect on expression of the CREB protein: 10 μM for 15 min
Protocol: FIGS. 5A, 5B1, 5B2, 5C1 and 5C2. Changes in phosphorylation of, and amounts of CREB after BK stimulation. AC and AD cells were treated with 10 nM BK for 5 or 10 min. Phosphorylated CREB (P-CREB) was measured using a anti-phospho-CREB-Serl33 antibody on Western blots. The mean densities of P-CREB were normalized against the total amount of CREB measured using an anti-“regular CREB” antibody and subjected to statistic analyses.
FIGS. 6A1, 6A2, 6B1, 6B2, 6C1 and 6C2. Effects of different inhibitors on BK-stimulated phosphorylation of CREB. AC and AD cells were preincubated at 37° C. for 15 min with 5 μM BiSM-1 (FIG. 6A), 10 μM PP1 (FIG. 6B), or 5 μM Ly294002 (FIG. 6C) before incubation with 10 nM BK for 10 min Nointalization was performed as with FIGS. 5A-5C and statistical significance of differences were evaluated by 2-way ANOVA. **p<0.0001; *p<0.05.
as §1
CREB was detected using analogous methods.
Signals from phosphorylated and nonphosphorylated Erk1/2 (or CREB) were scanned with a Fuji film LAS-1000 Plus scanner. The mean optical density of each protein band was measured using NIH Image software. Values from the phosph-Erk1/2 signals were normalized respectively against the total signal of Erk1/2. After normalization, data from treated cells was converted to a percentage of the basal control and subjected to statistical analyses.

[3] = AC and AD cells, preincubation 10 μM for 15 min

In the case of `CN(C)CCCn1cc(C2=C(c3c[nH]c4ccccc34)C(=O)NC2=O)c2ccccc21` [BiSM-1, bisindolylmaleimide-1], the “Effect on BK-induced phosphorylation of Erk1/2” value ([1]; both AC and AD cells, preincubation 5 μM for 15 min) is reported as “abolished” and the “Effect on BK-stimulated CREB phosphorylation” value ([2]; AC and AD cells (no group effect), preincubation 5 μM for 15 min) is reported as “completely abolished”.
`O=c1cc(N2CCOCC2)oc2c(-c3ccccc3)cccc12` [LY294002] was tested, and the “Effect on BK-induced Erk1/2 phosphorylation” value ([1]; AD cells, preincubation 5 μM for 15 min) was “failed to inhibit”.
`Cc1ccc(-c2nn(C(C)(C)C)c3ncnc(N)c23)cc1` [PP1] was tested, and the “Effect on BK-induced Erk1/2 phosphorylation” value [1, 3] was “completely inhibited”, the “Effect on BK-stimulated CREB phosphorylation” value [2, 3] was “inhibited” and the “Effect on expression of the CREB protein” value ([2]; AD cells) was “not observed”. The “Effect on expression of the CREB protein” value ([2]; control (AC) cells) was “increased expression of the CREB protein”.
